Measurements: ChEMBL document CHEMBL1201862, “PubChem BioAssay data set” (2004)
The source made the active and inactive calls.

Legend:
[1] = growth inhibition of PfATP4-mutant resistant parasites – NITD609-resistant line, SYBR Green, dry powder, dose response (AID 1159571); type: functional, cell-based;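 note: parasites synchronized at ring stage by sorbitol before testing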
[2] = Dd2 malaria parasite growth inhibition potency – SYBR Green, dry powder samples, dose response (AID 1159566); type: functional, cell-based;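 note: potency for growth inhibition with lower SYBR green DNA signal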
[3] = P. falciparum Dd2 growth inhibitors, dose response, SYBR Green, cherry-picked samples (AID 1159567); type: functional, cell-based
[4] = growth inhibition of yeast DHODH-expressing 3D7 parasites – SYBR Green, dry powder samples, dose response (AID 1159570); type: functional, cell-based;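 note: parasite growth measured after 72 hours of compound exposure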
[5] = target: T1, Leucine aminopeptidase (Plasmodium falciparum 3D7, UniProt Q8IL11); experiment: P. falciparum M17LAP inhibitors, primary screen, biochemical, fluorogenic H-Leu-NHMec substrate, 1536-well (AID 1619); type: functional
T1 sequence (Q8IL11 whole entry): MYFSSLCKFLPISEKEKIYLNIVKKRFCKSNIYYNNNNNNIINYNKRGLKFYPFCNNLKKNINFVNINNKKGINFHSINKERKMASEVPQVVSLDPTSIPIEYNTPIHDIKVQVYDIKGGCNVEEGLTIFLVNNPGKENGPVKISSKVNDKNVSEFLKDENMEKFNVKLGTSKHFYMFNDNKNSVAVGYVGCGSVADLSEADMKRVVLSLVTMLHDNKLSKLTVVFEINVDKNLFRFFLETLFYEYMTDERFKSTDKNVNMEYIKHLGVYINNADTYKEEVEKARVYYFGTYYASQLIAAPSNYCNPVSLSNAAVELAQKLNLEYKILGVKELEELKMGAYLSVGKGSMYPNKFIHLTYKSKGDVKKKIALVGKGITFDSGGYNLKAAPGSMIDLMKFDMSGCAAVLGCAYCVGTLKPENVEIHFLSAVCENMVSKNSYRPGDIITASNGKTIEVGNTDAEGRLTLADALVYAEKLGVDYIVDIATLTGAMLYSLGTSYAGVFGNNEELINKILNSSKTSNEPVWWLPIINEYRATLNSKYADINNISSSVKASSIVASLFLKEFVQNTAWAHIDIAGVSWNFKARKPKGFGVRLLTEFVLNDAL

[6] = target: T2, Estrogen receptor (Homo sapiens, UniProt P03372);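 note: potency for inhibiting coactivator peptide recruitment to the receptor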
T2 sequence (P03372 whole entry): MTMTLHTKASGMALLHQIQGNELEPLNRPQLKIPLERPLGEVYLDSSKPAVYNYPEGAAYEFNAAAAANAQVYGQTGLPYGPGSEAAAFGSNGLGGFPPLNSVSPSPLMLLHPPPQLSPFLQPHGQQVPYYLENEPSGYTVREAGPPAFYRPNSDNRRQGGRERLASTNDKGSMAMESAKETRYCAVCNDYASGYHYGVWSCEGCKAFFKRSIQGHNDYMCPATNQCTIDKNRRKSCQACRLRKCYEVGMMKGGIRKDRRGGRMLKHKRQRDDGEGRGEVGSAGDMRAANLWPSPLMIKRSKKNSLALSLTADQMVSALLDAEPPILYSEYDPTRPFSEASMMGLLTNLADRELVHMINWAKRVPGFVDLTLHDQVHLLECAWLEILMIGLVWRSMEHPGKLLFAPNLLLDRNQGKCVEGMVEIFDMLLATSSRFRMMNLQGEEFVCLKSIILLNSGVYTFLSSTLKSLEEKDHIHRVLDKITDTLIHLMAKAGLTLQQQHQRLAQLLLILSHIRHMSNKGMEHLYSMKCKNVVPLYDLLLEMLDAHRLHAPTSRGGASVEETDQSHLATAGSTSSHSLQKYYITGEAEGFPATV

[7] = system: Vero; experiment: mammalian cell viability reduction – secondary assay, cytotoxicity control for West Nile virus antiviral project, dose response (AID 1650); type: functional; conditions: Chlorocebus sabaeus
[8] = system: Streptococcus sp. 'group A'; experiment: Streptococcus pyogenes SK(-)GAS viability under kanamycin – luminescence, BacTiterGlo, confirmation, counter-screen for streptokinase expression inhibitor project, dose response (AID 1900); type: functional, organism-based
[9] = NIH3T3 cell viability loss – ATP luminescence, mouse fibroblasts, counter-screen, dose response (AID 2010); type: functional, cell-based;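 note: cells exposed to compound for about 90 hours before reading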
[10] = target: Paired box protein Pax-8 (Homo sapiens, UniProt Q06710); experiment: PAX8 transcriptional activity inhibition in RMG-I – RMG-I cells, luciferase, cherry-pick, dose response (AID 687027); type: functional, cell-based;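 note: luciferase reporter driven by Pax8 target thyroperoxidase promoter measured by SteadyGlo luminescence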
[11] = Trypanosoma cruzi growth suppression in host cells – NIH3T3 host cells, beta-gal luminescence, confirmation (AID 2044); type: functional, cell-based;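 note: intracellular parasites grown in NIH/3T3 mouse fibroblasts as host cells; luminescent beta-galactosidase reporter signal from transgenic T. cruzi replicating inside host cells; inhibitors lower the luminescence signal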
[12] = target: T3, Streptokinase A (Streptococcus pyogenes serotype M1, UniProt P10520); experiment: viability-normalized secreted streptokinase activity reduction – plasminogen activation absorbance, OD405, dose response (AID 1914); type: functional, Streptococcus pyogenes M1 GAS;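 note: secreted streptokinase activity via plasminogen activation per viability signal from cell pellet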
T3 sequence (P10520 whole entry): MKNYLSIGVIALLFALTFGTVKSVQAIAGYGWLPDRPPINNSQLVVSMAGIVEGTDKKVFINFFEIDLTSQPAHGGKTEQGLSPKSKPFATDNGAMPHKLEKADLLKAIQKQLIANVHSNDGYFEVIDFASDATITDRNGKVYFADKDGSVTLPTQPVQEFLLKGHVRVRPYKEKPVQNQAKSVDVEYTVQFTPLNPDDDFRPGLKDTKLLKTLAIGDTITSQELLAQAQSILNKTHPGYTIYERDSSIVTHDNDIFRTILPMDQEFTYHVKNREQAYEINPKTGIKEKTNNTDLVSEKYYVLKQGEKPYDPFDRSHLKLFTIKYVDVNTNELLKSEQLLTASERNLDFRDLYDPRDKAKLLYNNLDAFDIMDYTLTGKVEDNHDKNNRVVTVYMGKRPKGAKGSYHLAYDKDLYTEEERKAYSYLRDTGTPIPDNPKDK

[13] = Luminescence Cell-Based Dose Retest to Confirm Inhibitors of Cancer Stem Cells. [Related pubchem assays (depositor defined):AID2717, AID2721]; type: functional; conditions: Homo sapiens
[14] = target: T4, Heat shock factor protein 1 (Mus musculus, UniProt P38532); experiment: enhancement of HSF1-driven luciferase signal – cell-based, NIH3T3, luminescence, dose retest, confirmation (AID 435004); type: functional;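 note: stress induced by proteasome inhibitor MG132 added 30 min after compound; luciferase reporter driven by HSF1 response element in NIH3T3 cells; actives raise luminescence as potentiators of the MG132 stress response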
T4 sequence (P38532 whole entry): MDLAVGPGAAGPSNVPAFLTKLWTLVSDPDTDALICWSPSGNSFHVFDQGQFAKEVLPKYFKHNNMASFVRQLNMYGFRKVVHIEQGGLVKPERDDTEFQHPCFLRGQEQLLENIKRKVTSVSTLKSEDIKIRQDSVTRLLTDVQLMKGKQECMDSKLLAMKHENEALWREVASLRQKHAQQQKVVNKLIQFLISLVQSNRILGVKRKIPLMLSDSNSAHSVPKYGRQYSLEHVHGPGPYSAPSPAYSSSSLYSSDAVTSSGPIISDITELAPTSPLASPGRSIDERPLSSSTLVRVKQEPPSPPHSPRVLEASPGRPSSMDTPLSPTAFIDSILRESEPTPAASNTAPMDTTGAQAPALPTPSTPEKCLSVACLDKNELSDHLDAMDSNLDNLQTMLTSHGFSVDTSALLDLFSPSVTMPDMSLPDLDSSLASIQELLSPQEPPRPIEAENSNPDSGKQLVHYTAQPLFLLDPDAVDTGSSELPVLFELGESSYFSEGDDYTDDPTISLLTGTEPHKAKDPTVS

[15] = system: Streptococcus; experiment: GAS UMAA2166 growth inhibition – luminescence, BacTiterGlo, counter-screen for streptokinase expression inhibitor project, dose response (AID 1915); type: functional, organism-based;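 note: potency for reduction of bacterial viability or growth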
[16] = system: H4; experiment: Luminescence Cell-Based Dose Response HTS to Identify Activators of 5'UTR Stem-Loop Driven Prion Protein mRNA Translation in H4 Neuroglioblastoma Cells. [Related pubchem assays: 1829 (Project Summary), 1814 (Primary HTS)]; type: functional; conditions: Homo sapiens
[17] = target: T5, Methionyl-tRNA synthetase, putative (Trypanosoma brucei brucei, UniProt Q38C91); type: functional, Trypanosoma brucei brucei strain 927/4 GUTat10.1
T5 sequence (Q38C91 whole entry): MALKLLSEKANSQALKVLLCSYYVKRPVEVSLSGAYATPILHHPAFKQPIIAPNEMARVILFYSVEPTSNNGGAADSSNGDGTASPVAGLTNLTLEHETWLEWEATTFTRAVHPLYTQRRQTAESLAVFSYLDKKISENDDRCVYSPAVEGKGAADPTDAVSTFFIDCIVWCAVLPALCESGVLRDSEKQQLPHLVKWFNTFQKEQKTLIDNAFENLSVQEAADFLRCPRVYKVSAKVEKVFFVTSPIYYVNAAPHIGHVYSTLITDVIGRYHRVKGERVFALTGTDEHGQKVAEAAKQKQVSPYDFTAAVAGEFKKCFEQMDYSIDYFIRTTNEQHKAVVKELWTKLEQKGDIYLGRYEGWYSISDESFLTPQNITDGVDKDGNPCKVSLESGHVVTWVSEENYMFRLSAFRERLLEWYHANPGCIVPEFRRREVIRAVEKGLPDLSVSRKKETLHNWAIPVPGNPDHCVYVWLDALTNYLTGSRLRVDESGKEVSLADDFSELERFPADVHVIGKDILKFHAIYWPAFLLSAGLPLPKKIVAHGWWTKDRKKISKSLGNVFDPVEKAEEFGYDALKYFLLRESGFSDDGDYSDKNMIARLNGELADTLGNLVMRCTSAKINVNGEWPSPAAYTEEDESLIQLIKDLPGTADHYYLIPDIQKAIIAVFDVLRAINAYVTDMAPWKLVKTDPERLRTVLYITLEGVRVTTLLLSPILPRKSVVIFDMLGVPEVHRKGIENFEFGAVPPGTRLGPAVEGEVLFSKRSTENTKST

[18] = Luminescence Cell-Based Dose Confirmation HTS to Identify Activators of 5'UTR Stem-Loop Driven Alpha-Synuclein mRNA Translation in H4 Neuroglioblastoma Cells. [Related pubchem assays: 1829 (Project Summary), 1814 (Primary HTS)]; type: functional
[19] = Counterscreen for inhibitors of Trypanosoma brucei methionyl tRNA synthetase (MetRS): Luminescence-based cell-based high throughput dose response assay to identify compounds that are cytotoxic to Jurkat human T lymphocyte cells.; type: functional
[20] = Luminescence Cell-Based Dose Response HTS to Identify Activators of Luciferase Translation or Activity in H4 […] Cells. [Related pubchem assays: 1829 (Project Summary), 1814 (Primary HTS)]; type: functional
[21] = target: T5, Methionyl-tRNA synthetase, putative; type: functional, Trypanosoma brucei brucei strain 927/4 GUTat10.1; remark: listed apart in the source
[22] = toxicity toward HepG2 liver cells – cell-based, plate reader, cherry-pick, antagonist series, cytotoxicity control, dose response (AID 743416); type: functional
[23] = blockade of melanocortin 4 receptor signaling – cell-based, plate reader, cherry pick, counter-screen for LGR2 antagonist project, dose response (AID 743444); type: functional;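 note: transfected HEK 293 cells stimulated with alpha-MSH peptide; potency of inhibitors of the alpha-MSH evoked signal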
[24] = blockers of bursicon-stimulated LGR2 cAMP reporter – cell-based, HEK293, CRE-luciferase reporter, cherry pick, set 2, dose response (AID 743343); type: functional;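 note: transfected cells were stimulated with diluted bursicon conditioned medium after compound addition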

Paired box protein Pax-8, sequence (Q06710 whole entry): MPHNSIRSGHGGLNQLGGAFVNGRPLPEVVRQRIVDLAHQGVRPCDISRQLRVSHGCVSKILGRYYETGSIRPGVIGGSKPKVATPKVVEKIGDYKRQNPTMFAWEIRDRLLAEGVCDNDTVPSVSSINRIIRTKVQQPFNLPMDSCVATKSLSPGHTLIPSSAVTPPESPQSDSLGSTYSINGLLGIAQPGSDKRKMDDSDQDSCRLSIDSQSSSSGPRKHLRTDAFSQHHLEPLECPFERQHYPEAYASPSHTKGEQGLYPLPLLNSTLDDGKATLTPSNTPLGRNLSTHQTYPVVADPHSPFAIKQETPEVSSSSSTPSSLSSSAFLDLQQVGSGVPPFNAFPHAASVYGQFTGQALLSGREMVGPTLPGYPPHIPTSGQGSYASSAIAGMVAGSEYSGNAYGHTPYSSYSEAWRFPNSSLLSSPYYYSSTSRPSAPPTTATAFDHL

SMILES: COc1ccc(-c2ccccc2[C@H]2[C@@H](C#N)N(C(=O)C3CCCCC3)[C@H]2CO)cc1
- AC50 [1]: 5.94 µM (active)
- AC50 [2]: 1.52 µM (active)
- AC50 [3]: 1.03 µM (active)
- AC50 [4]: 1.38 µM (active)

SMILES: CC(=O)NS(=O)(=O)c1ccc(NC(=O)c2cc(-c3ccc(C)cc3)nc3ccccc23)cc1
- IC50 [5]: 13.7 µM (active)

SMILES: CCOC(=O)c1c(NC(=O)CSc2nnc(C)c(=O)[nH]2)sc2c1CCC2
- IC50 [5]: 7.77 µM (active)

SMILES: O=C(Nc1cccc(-c2cnc3ccccc3n2)c1)c1cccc(NC(=O)c2ccco2)c1
- IC50 [6]: 13.1 µM (active)

SMILES: CCOC(=O)c1c(NC(=O)CCS(=O)(=O)c2ccccc2)sc2c1CCN(C(C)C)C2
- CC50 [7]: 69.1 µM (active)

SMILES: O=C(Nc1cccc(Cl)c1)Nc1csc([N+](=O)[O-])c1
- EC50 [8]: 9.68 µM (active)
- EC50 [9]: > 60 µM (not active)
- AC50 [10]: 11.6 µM (active)
- EC50 [11]: 3.47 µM (active)
- EC50 [12]: > 150 µM (not active)
- AC50 [13]: 4.34 µM (active)
- CC50 [7]: > 100 µM (active)
- EC50 [14]: 31.6 µM (active)
- EC50 [15]: 15.3 µM (active)

SMILES: O=C(NCC1CCCO1)C(=Cc1cccc([N+](=O)[O-])c1)C(=O)NCC1CCCO1 (centres undefined)
- AC50 [10]: 3.43 µM (active)
- CC50 [7]: 23.6 µM (active)

SMILES: CC1(C)CC(=O)c2cnc(NCC3CCCO3)nc2C1 (centres undefined)
- IC50 [6]: > 50 µM (not active)

SMILES: Cc1ccccc1Oc1cc(NC(=O)Cn2cnc([N+](=O)[O-])c2)cc([N+](=O)[O-])c1
- EC50 [16]: > 120 µM (not active)
- IC50 [17]: 52.5 µM (inactive)
- EC50 [18]: > 120 µM (not active)
- IC50 [19]: 37.3 µM (inactive)
- EC50 [20]: > 120 µM (not active)
- IC50 [21]: 51.3 µM (inactive)

SMILES: COc1ccc(-n2nnnc2-c2nc3ccccc3s2)cc1
- AC50 [22]: > 52 µM (inactive)
- AC50 [23]: 7.96 µM (active)
- AC50 [24]: 6.52 µM (active)
